# Read-outs that look alike come from different tables or passages of the source.
# Tests used:
# Type in all cases: biochemical
# KPC-2 = KPC-2 (Klebsiella pneumoniae, UniProt Q9F663); assay: Inhibitory activity on SBL, fluorescent substrate FC-5
# OXA-48 = OXA-48 (Klebsiella pneumoniae, UniProt Q6XEC0); assay: as above
# NDM-1 = NDM-1 (Klebsiella pneumoniae, UniProt C7C422); assay: Inhibitory activity on MBL, fluorescent substrate FC-5
# NDM-5 = NDM-5 (Klebsiella pneumoniae, UniProt C7C422, M154L/V88L); assay: as above
# IMP-1 = IMP-1 (Serratia marcescens, UniProt P52699); assay: as above
# VIM-1 = VIM-1 (Pseudomonas aeruginosa, UniProt A0A0F7KYQ8); assay: as above
# VIM-2 = VIM-2 (Escherichia coli, UniProt Q5U7L7); assay: as above
# TEM-1 = TEM-1 (Escherichia coli, UniProt P62593); assay: Inhibitory activity on SBL, fluorescent substrate FC-5; conditions: for IC50: read-out: Inhibitory activity on SBL TEM-1 (IC50 class)
# CTX-M-14 = CTX-M-14 (Escherichia coli, UniProt Q9L5C7); assay: as above
# [1] = salts, read-out: inhibitory activity at a nanomolar-level on KPC-2
# [2] = salts, read-out: inhibitory activity at a nanomolar-level on OXA-48
# [3] = read-out: Inhibitory activity on SBL KPC-2 (IC50 class)
# [4] = read-out: Inhibitory activity on MBL NDM-1 (IC50 class)
# [5] = read-out: Inhibitory activity on MBL NDM-5 (IC50 class)
# [6] = read-out: Inhibitory activity on MBL IMP-1 (IC50 class)
# [7] = read-out: Inhibitory activity on MBL VIM-1 (IC50 class)
# [8] = read-out: Inhibitory activity on MBL VIM-2 (IC50 class)
# [9] = read-out: Inhibitory activity on SBL CTX-M-14 (IC50 class)
# [10] = read-out: Inhibitory activity on SBL OXA-48 (IC50 class)
# [11] = VIM-1 and/or VIM-2, read-out: inhibitory activity at a nanomolar-level on VIM-1 and/or VIM-2
# [12] = Inhibitory activity on MBL VIM-1 (IC50 class)
# [13] = Inhibitory activity on SBL OXA-48 (IC50 class)
# [14] = IMP-1 and/or IMP-4, read-out: inhibitory activity at a nanomolar-level on IMP-1 and/or IMP-4
# [15] = read-out: inhibitory activity at a nanomolar-level on NDM-1
# [16] = read-out: inhibitory activity at a nanomolar-level on NDM-5
# Chain of NDM-5 (C7C422 29-270 V88L/M154L): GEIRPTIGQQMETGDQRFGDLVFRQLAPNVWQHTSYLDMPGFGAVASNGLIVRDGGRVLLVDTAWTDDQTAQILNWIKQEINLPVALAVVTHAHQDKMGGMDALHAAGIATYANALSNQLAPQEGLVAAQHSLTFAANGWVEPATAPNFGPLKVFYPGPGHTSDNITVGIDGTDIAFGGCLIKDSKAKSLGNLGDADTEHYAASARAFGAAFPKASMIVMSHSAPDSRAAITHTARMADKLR
# Chain of OXA-48 (Q6XEC0 23-265 limits assumed): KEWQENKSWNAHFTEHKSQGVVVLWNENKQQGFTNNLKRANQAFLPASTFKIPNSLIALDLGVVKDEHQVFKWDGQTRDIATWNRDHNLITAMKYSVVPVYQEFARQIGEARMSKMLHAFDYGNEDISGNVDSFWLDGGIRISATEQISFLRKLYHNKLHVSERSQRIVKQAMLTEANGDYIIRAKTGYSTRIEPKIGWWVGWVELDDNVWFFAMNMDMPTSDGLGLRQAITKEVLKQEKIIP
# Chain of NDM-1 (C7C422 29-270 limits assumed): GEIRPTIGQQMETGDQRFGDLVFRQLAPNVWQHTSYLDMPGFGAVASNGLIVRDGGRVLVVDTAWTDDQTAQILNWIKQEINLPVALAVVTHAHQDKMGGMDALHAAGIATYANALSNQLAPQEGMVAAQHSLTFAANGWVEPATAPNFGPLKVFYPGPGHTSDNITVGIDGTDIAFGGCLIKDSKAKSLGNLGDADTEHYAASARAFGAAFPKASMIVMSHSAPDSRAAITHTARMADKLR
# Chain of TEM-1 (P62593 24-286 limits assumed): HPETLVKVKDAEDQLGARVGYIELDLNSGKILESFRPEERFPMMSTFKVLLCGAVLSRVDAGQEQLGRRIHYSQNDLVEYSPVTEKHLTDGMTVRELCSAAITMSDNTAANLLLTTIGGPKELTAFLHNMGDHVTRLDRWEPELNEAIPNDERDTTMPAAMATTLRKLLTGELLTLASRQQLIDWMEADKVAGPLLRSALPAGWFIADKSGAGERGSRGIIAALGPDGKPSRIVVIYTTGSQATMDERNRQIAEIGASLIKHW
# Chain of CTX-M-14 (Q9L5C7 entry or part of it): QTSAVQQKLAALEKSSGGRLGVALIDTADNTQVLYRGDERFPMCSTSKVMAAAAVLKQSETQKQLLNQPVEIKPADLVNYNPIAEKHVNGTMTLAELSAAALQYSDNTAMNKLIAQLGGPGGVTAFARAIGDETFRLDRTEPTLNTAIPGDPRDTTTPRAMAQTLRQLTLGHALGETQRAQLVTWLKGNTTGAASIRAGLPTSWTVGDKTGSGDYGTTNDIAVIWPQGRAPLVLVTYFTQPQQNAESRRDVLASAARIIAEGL
# Chain of KPC-2 (Q9F663 25-293 limits assumed): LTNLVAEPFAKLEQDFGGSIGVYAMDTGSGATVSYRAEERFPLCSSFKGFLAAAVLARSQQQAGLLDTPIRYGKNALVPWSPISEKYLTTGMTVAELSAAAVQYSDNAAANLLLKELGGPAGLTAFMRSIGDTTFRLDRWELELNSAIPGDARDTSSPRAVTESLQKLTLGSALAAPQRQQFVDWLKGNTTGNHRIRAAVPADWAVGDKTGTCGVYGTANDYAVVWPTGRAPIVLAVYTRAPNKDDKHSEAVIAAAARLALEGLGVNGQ
# Chain of IMP-1 (P52699 19-246 limits assumed): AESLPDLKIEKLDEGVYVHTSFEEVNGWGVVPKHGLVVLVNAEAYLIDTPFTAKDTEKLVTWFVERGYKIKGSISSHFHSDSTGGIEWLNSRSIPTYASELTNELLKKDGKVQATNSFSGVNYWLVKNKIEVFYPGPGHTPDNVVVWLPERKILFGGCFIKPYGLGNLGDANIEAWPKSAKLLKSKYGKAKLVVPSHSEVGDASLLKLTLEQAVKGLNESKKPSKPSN
SMILES,IC50 (KPC-2; [1]),IC50 (KPC-2; [3]),IC50 (NDM-1; [4]),IC50 (NDM-5; [5]),IC50 (IMP-1; [6]),IC50 (VIM-1; [7]),IC50 (VIM-2; [8]),IC50 (TEM-1),IC50 (CTX-M-14; [9]),IC50 (OXA-48; [10]),also measured
NCc1cnn(Cc2ccc3c(c2C(=O)O)OB(O)CC3)c1 [21-phosphoric acid],< 10 nM,–,–,–,–,–,–,–,–,–,IC50 (OXA-48; [2]): < 10 nM
NC1(c2cn(Cc3ccc4c(c3C(=O)O)OB(O)CC4)nn2)CC1 [41-propionic acid],< 10 nM,–,–,–,–,–,–,–,–,–,–
NCCc1cnn(Cc2ccc3c(c2C(=O)O)OB(O)CC3)c1 [43-maleic acid],< 10 nM,–,–,–,–,–,–,–,–,–,–
N=C(N)N1Cc2cn(Cc3ccc4c(c3C(=O)O)OB(O)CC4)nc2C1 [58-toluene sulfonic acid],< 10 nM,–,–,–,–,–,–,–,–,–,IC50 (OXA-48; [2]): < 10 nM
NCCc1ccc(-c2cn(Cc3ccc4c(c3C(=O)O)OB(O)CC4)nn2)cc1 [63-tartaric acid],< 10 nM,< 10 nM,–,–,–,–,–,–,–,–,–
N=C(N)NCc1ccc(-c2cn(Cc3ccc4c(c3C(=O)O)OB(O)CC4)nn2)cc1 [64-citric acid],< 10 nM,–,–,–,–,–,–,–,–,–,IC50 (OXA-48; [2]): < 10 nM
O=C(O)c1c(Cn2ncc3c2CNC3)ccc2c1OB(O)CC2 [66-oxalic acid],< 10 nM,–,–,–,–,–,–,–,–,–,IC50 (OXA-48; [2]): < 10 nM
NCc1cn(Cc2ccc3c(c2C(=O)O)OB(O)CC3)nn1 [Compound 7],–,10 to 1000 nM,1000 to 100000 nM,1000 to 100000 nM,1000 to 100000 nM,1000 to 100000 nM,1000 to 100000 nM,10 to 1000 nM,10 to 1000 nM,10 to 1000 nM,–
NCCc1cn(Cc2ccc3c(c2C(=O)O)OB(O)CC3)nn1 [Compound 8],–,10 to 1000 nM,1000 to 100000 nM,10 to 1000 nM,1000 to 100000 nM,1000 to 100000 nM,10 to 1000 nM,10 to 1000 nM,10 to 1000 nM,10 to 1000 nM,IC50 (VIM-1; [11]): < 1000 nM
NCc1cnn(Cc2ccc3c(c2C(=O)O)OB(O)CC3)c1 [Compound 21],–,< 10 nM,–,–,–,–,–,–,–,< 10 nM,–
O=C(O)c1c(Cn2nccn2)ccc2c1OB(O)C1CC21 (centres unmarked) [Compound 27],–,–,–,1000 to 100000 nM,–,–,–,10 to 1000 nM,–,–,"IC50 (NDM-1): 1000 to 100000 nM; IC50 (IMP-1): 1000 to 100000 nM; IC50 (VIM-1; [12]): 1000 to 100000 nM; IC50 (VIM-1; inhibitory activity at a nanomolar-level on VIM-1 and/or VIM-2, text summary, VIM-1 and/or VIM-2): < 1000 nM; IC50 (VIM-2): 10 to 1000 nM; IC50 (KPC-2): < 10 nM; IC50 (CTX-M-14): 10 to 1000 nM; IC50 (OXA-48; [13]): < 10 nM"
O=C(O)c1c(Cn2ccnn2)ccc2c1OB(O)C1CC21 (centres unmarked) [Compound 28],–,< 10 nM,1000 to 100000 nM,1000 to 100000 nM,10 to 1000 nM,10 to 1000 nM,10 to 1000 nM,10 to 1000 nM,10 to 1000 nM,10 to 1000 nM,IC50 (IMP-1; [14]): < 1000 nM; IC50 (VIM-1; [11]): < 1000 nM
C[C@H]1Cc2ccc(Cn3ccnn3)c(C(=O)O)c2OB1O [Compound 29],–,< 10 nM,10 to 1000 nM,10 to 1000 nM,10 to 1000 nM,10 to 1000 nM,10 to 1000 nM,10 to 1000 nM,10 to 1000 nM,10 to 1000 nM,IC50 (NDM-1; [15]): < 1000 nM; IC50 (NDM-5; [16]): < 1000 nM; IC50 (IMP-1; [14]): < 1000 nM; IC50 (VIM-1; [11]): < 1000 nM
CO[C@H]1Cc2ccc(Cn3ccnn3)c(C(=O)O)c2OB1O [Compound 30],–,< 10 nM,10 to 1000 nM,10 to 1000 nM,10 to 1000 nM,10 to 1000 nM,10 to 1000 nM,10 to 1000 nM,10 to 1000 nM,10 to 1000 nM,IC50 (NDM-1; [15]): < 1000 nM; IC50 (NDM-5; [16]): < 1000 nM; IC50 (IMP-1; [14]): < 1000 nM; IC50 (VIM-1; [11]): < 1000 nM
NCCNc1cnn(Cc2ccc3c(c2C(=O)O)OB(O)CC3)c1 [Compound 33],–,< 10 nM,10 to 1000 nM,10 to 1000 nM,1000 to 100000 nM,1000 to 100000 nM,10 to 1000 nM,10 to 1000 nM,10 to 1000 nM,< 10 nM,IC50 (NDM-1; [15]): < 1000 nM; IC50 (NDM-5; [16]): < 1000 nM
N=C(N)NCc1cnn(Cc2ccc3c(c2C(=O)O)OB(O)CC3)c1 [Compound 37],–,< 10 nM,10 to 1000 nM,10 to 1000 nM,1000 to 100000 nM,1000 to 100000 nM,10 to 1000 nM,< 10 nM,< 10 nM,< 10 nM,IC50 (NDM-1; [15]): < 1000 nM; IC50 (NDM-5; [16]): < 1000 nM
N=C(N)Nc1cnn(Cc2ccc3c(c2C(=O)O)OB(O)CC3)c1 [Compound 38],–,10 to 1000 nM,10 to 1000 nM,10 to 1000 nM,1000 to 100000 nM,1000 to 100000 nM,10 to 1000 nM,10 to 1000 nM,10 to 1000 nM,< 10 nM,IC50 (NDM-1; [15]): < 1000 nM; IC50 (NDM-5; [16]): < 1000 nM
CC(N)c1cnn(Cc2ccc3c(c2C(=O)O)OB(O)CC3)c1 (centres unmarked) [Compound 39],–,< 10 nM,1000 to 100000 nM,1000 to 100000 nM,1000 to 100000 nM,1000 to 100000 nM,1000 to 100000 nM,10 to 1000 nM,10 to 1000 nM,10 to 1000 nM,–
NC1(c2cn(Cc3ccc4c(c3C(=O)O)OB(O)CC4)nn2)CC1 [Compound 41],–,< 10 nM,–,–,–,–,10 to 1000 nM,10 to 1000 nM,10 to 1000 nM,10 to 1000 nM,–
NCCc1cnn(Cc2ccc3c(c2C(=O)O)OB(O)CC3)c1 [Compound 43],–,< 10 nM,–,–,–,–,–,–,–,–,–
N[C@H]1CC(=O)N(Cc2ccc3c(c2C(=O)O)OB(O)CC3)C1 [Compound 45],–,10 to 1000 nM,1000 to 100000 nM,1000 to 100000 nM,1000 to 100000 nM,1000 to 100000 nM,1000 to 100000 nM,10 to 1000 nM,10 to 1000 nM,10 to 1000 nM,–
CC(C)(N)C#Cc1cnn(Cc2ccc3c(c2C(=O)O)OB(O)CC3)c1 [Compound 46],–,< 10 nM,1000 to 100000 nM,10 to 1000 nM,1000 to 100000 nM,1000 to 100000 nM,10 to 1000 nM,10 to 1000 nM,< 10 nM,10 to 1000 nM,–
N=C(N)N1CC(c2cn(Cc3ccc4c(c3C(=O)O)OB(O)CC4)nn2)C1 [Compound 49-Na],< 10 nM,–,–,–,–,–,–,–,–,–,–
O=C(O)c1c(Cn2cc3c(n2)CNC3)ccc2c1OB(O)CC2 [Compound 56-Na],< 10 nM,< 10 nM,10 to 1000 nM,–,1000 to 100000 nM,10 to 1000 nM,10 to 1000 nM,10 to 1000 nM,10 to 1000 nM,< 10 nM,IC50 (OXA-48; [2]): < 10 nM
N=C(N)N1Cc2cn(Cc3ccc4c(c3C(=O)O)OB(O)CC4)nc2C1 [Compound 58],–,< 10 nM,–,–,–,–,–,< 10 nM,–,< 10 nM,–
NCc1ccc(-c2cn(Cc3ccc4c(c3C(=O)O)OB(O)CC4)nn2)cc1 [Compound 63-Na],< 10 nM,–,–,–,–,–,–,–,–,–,IC50 (OXA-48; [2]): < 10 nM
N=C(N)NCc1ccc(-c2cn(Cc3ccc4c(c3C(=O)O)OB(O)CC4)nn2)cc1 [Compound 64],–,< 10 nM,–,–,–,–,–,–,–,< 10 nM,inhibitory activity on KPC-2 compared to avibactam (KPC-2; comparison in words): better or comparable; inhibitory activity on TEM-1 compared to avibactam (TEM-1; comparison in words): better or comparable; inhibitory activity on CTX-M-14 compared to avibactam (CTX-M-14; comparison in words): better or comparable; inhibitory activity on OXA-48 compared to avibactam (OXA-48; comparison in words): better or comparable
O=C(O)c1c(Cn2ncc3c2CNC3)ccc2c1OB(O)CC2 [Compound 66],–,< 10 nM,–,–,–,–,–,10 to 1000 nM,10 to 1000 nM,< 10 nM,–
"C[C@]1(Cn2ccnn2)[C@H](C(=O)O)N2C(=O)C[C@H]2S1(=O)=O [Tazobactam, reference compound]",–,1000 to 100000 nM,> 100000 nM,> 100000 nM,> 100000 nM,–,> 100000 nM,–,–,–,IC50 (VIM-1; [12]): > 100000 nM; IC50 (OXA-48; [13]): 1000 to 100000 nM

# — patent US20250205259A1, “CLASS OF 7-((FIVE-MEMBERED HETEROCYCLIC)METHYL)-8-CARBOXYLIC ACID-BENZO CYCLIC BORATE DERIVATIVES AND USES THEREOF” (priority 2022, published 2025)
